# Where two headings read alike, the source gives them in different places.
# Experiments:
# Format in all cases: biochemical
# [1] = target: kinases (Homo sapiens, UniProt O60674)
# [2] = target: kinases (Homo sapiens, UniProt P07332); settings: FES (FPS) FRET-Z-Lyte SP; Test Conc(μM):ATP Conc(μM) 1:25
# [3] = target: kinases (Homo sapiens, UniProt Q00536); settings: CDK16(PCTK1)/cyclinY Lantha SP; Test Conc(μM) 1
# [4] = target: kinases (Homo sapiens, UniProt P08631); settings: HCK FRET-Z-Lyte SP; Test Conc(μM):ATP Conc(μM) 1:25
# [5] = target: kinases (Homo sapiens, UniProt Q9BZL6); settings: PRKD2 (PKD2) Z-Lyte SP; Test Conc(μM):ATP Conc(μM) 1:25
# [6] = target: kinases (Homo sapiens, UniProt P51813); settings: BMX FRET-Z-Lyte SP; Test Conc(μM):ATP Conc(μM) 1:100
# [7] = target: kinases (Homo sapiens, UniProt O43318); settings: MAP3K7/MAP3K7IP1 Lantha SP; Test Conc(μM) 1
# [8] = target: kinases (Homo sapiens, UniProt P24723); settings: PRKCH (PKC eta) Z-Lyte SP; Test Conc(μM):ATP Conc(μM) 1:25
# [9] = target: kinases (Homo sapiens, UniProt Q02779); settings: MAP3K10 (MLK2) FRET-Lantha SP; Test Conc(μM) 1
# [10] = target: kinases (Homo sapiens, UniProt P49336); settings: CDK8/cyclin C FRET-Lantha SP; Test Conc(μM) 1
# [11] = target: kinases (Homo sapiens, UniProt P22607); settings: FGFR3 *Mn* FRET-Z-Lyte SP; Test Conc(μM):ATP Conc(μM) 1:75
# [12] = target: kinases (Homo sapiens, UniProt Q9Y572); settings: RIPK3 FRET-Lantha SP; Test Conc(μM) 1
# [13] = target: kinases (Homo sapiens, UniProt P16234); settings: PDGFRA *Mn* FRET-Z-Lyte SP; Test Conc(μM):ATP Conc(μM) 1:10
# [14] = target: kinases (Homo sapiens, UniProt O94806); settings: PRKCN (PKD3) FRET-Z-Lyte SP; Test Conc(μM):ATP Conc(μM) 1:25
# [15] = target: kinases (Homo sapiens, UniProt Q13464); settings: ROCK1 FRET-Z-Lyte SP; Test Conc(μM):ATP Conc(μM) 1:5
# [16] = target: kinases (Homo sapiens, UniProt P23443); settings: RPS6KB1 (p70S6K) Z-Lyte SP; Test Conc(μM):ATP Conc(μM) 1:10
# kinases (Homo sapiens, UniProt P23443), sequence (P23443 whole entry): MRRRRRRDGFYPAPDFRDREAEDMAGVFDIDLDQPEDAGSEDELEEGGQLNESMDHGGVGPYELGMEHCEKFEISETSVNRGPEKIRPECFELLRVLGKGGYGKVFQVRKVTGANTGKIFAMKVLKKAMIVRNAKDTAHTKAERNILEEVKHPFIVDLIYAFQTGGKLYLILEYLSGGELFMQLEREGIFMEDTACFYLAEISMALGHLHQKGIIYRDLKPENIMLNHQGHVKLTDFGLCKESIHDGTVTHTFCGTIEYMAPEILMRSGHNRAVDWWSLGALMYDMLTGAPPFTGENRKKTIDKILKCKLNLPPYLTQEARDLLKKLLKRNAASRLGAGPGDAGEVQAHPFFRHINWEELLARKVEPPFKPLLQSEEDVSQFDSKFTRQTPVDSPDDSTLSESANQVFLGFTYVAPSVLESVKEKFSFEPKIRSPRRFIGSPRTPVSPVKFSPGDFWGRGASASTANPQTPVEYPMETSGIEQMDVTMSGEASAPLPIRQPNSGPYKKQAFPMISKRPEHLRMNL
# [17] = target: kinases (Homo sapiens, UniProt Q05397); settings: PTK2 (FAK) FRET-Z-Lyte SP; Test Conc(μM):ATP Conc(μM) 1:50
# [18] = target: kinases (Homo sapiens, UniProt P06493)
# kinases (Homo sapiens, UniProt P06493), sequence (P06493 whole entry): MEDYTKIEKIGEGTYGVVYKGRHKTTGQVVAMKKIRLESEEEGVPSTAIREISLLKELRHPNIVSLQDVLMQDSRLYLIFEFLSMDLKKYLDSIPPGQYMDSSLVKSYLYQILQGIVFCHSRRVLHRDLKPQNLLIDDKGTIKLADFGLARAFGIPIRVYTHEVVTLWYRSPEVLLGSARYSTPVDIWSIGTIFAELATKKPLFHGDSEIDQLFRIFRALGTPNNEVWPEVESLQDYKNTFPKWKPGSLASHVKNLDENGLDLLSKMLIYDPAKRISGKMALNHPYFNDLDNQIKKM
# [19] = target: kinases (Homo sapiens, UniProt Q9H2G2); settings: SLK Hu Bind FRET-Lantha SP; Test Conc(μM) 1
# [20] = target: kinases (Homo sapiens, UniProt P51817); settings: PRKX FRET-Z-Lyte SP; Test Conc(μM):ATP Conc(μM) 1:10
# [21] = target: kinases (Homo sapiens, UniProt P17948); settings: FLT1 (VEGFR1) *Mn* Z-Lyte SP; Test Conc(μM):ATP Conc(μM) 1:150
# kinases (Homo sapiens, UniProt P17948), sequence (P17948 27-1338): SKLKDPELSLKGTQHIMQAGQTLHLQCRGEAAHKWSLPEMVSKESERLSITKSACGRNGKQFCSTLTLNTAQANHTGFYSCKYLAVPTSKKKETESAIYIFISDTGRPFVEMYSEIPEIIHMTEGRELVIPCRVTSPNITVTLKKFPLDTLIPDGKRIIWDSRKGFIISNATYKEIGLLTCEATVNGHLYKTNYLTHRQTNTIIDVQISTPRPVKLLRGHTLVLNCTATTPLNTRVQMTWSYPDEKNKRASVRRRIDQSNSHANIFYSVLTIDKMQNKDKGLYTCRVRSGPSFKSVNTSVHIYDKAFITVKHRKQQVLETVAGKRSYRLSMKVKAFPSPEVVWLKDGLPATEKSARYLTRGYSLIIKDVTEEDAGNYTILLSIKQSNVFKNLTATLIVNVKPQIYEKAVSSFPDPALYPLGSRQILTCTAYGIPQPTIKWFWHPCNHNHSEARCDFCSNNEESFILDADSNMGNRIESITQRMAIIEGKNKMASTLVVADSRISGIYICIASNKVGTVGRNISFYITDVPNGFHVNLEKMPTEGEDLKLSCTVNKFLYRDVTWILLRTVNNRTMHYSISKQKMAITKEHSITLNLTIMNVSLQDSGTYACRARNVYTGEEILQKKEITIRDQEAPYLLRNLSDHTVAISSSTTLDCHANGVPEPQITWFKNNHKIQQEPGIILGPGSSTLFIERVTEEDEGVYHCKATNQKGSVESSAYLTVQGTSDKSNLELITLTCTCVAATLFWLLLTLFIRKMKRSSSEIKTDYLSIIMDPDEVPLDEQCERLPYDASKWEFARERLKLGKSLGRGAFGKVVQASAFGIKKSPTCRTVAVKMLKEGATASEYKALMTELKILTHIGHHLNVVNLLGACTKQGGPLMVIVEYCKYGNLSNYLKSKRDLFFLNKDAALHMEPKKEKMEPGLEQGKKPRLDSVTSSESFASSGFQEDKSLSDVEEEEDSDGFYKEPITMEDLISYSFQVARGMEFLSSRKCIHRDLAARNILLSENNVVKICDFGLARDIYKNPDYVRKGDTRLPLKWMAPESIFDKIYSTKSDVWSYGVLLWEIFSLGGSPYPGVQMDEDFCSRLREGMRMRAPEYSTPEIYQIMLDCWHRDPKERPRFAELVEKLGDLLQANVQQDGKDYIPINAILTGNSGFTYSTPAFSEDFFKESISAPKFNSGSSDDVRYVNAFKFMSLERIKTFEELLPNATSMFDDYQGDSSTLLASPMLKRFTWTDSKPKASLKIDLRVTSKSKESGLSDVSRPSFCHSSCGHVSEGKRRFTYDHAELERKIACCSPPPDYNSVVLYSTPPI
# [22] = target: kinases (Homo sapiens, UniProt Q76MJ5); settings: ERN2 FRET-Lantha SP; Test Conc(μM) 1
# kinases (Homo sapiens, UniProt Q76MJ5), sequence (Q76MJ5 35-926): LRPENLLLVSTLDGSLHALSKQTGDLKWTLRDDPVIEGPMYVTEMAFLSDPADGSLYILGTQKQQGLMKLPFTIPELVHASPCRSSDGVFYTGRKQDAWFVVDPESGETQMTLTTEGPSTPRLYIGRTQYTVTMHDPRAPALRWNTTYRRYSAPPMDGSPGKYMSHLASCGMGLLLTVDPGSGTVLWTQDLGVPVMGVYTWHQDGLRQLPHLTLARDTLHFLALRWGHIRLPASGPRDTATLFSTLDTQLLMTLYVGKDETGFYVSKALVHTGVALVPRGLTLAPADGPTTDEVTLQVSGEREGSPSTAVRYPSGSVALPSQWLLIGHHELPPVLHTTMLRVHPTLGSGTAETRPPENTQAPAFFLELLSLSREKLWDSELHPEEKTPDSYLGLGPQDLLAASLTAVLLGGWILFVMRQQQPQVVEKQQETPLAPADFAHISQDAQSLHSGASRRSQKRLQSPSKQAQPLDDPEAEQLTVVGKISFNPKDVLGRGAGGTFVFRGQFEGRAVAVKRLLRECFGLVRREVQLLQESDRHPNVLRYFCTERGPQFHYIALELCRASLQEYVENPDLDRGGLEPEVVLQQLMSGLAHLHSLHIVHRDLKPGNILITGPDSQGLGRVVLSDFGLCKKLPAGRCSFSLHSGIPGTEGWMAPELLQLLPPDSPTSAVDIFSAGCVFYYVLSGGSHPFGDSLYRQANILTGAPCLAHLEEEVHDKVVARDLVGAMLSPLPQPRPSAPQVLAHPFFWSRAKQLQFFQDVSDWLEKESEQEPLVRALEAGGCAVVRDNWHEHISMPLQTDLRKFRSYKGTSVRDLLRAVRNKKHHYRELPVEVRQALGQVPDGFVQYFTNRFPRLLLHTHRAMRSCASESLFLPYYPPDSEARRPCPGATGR
# [23] = target: kinases (Homo sapiens, UniProt Q13554); settings: CAMK2B FRET-Z-Lyte SP; Test Conc(μM):ATP Conc(μM) 1:75
# kinases (Homo sapiens, UniProt Q13554), sequence (Q13554 whole entry): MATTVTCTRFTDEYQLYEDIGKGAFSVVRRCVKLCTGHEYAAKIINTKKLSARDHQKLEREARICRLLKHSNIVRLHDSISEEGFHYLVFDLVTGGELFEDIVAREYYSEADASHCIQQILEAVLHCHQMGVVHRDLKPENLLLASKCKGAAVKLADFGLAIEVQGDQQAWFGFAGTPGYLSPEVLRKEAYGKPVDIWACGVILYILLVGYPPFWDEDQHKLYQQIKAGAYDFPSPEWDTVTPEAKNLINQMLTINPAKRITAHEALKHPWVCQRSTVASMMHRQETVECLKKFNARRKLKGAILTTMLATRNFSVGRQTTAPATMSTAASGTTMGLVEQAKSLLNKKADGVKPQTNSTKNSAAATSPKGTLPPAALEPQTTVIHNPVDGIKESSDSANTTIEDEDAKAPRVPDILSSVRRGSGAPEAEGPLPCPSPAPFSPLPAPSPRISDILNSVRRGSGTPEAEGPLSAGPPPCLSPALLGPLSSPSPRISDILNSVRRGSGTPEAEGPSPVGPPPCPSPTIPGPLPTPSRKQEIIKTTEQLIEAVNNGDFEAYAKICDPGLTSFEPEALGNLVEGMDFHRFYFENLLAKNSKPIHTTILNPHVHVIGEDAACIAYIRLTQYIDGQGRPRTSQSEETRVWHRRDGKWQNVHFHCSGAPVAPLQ
# [24] = target: kinases (Homo sapiens, UniProt Q9NYA1); settings: SPHK1 FRET-Adapta SP; Test Conc(μM):ATP Conc(μM) 1:10
# [25] = target: kinases (Homo sapiens, UniProt P49840); settings: GSK3A FRET-Z-Lyte SP; Test Conc(μM):ATP Conc(μM) 1:10
# [26] = target: kinases (Homo sapiens, UniProt P30530); settings: AXL FRET-Z-Lyte SP; Test Conc(μM):ATP Conc(μM) 1:75
# [27] = JAK2 FRET-Z-Lyte SP, Test Conc(μM):ATP Conc(μM) 1:25
# [28] = CDK1/cyclin A2 FRET-Lantha SP, Test Conc(μM) 1
# [29] = CDK1/cyclin B FRET-Z-Lyte SP, Test Conc(μM):ATP Conc(μM) 1:25
# kinases (Homo sapiens, UniProt O60674), sequence (O60674 whole entry): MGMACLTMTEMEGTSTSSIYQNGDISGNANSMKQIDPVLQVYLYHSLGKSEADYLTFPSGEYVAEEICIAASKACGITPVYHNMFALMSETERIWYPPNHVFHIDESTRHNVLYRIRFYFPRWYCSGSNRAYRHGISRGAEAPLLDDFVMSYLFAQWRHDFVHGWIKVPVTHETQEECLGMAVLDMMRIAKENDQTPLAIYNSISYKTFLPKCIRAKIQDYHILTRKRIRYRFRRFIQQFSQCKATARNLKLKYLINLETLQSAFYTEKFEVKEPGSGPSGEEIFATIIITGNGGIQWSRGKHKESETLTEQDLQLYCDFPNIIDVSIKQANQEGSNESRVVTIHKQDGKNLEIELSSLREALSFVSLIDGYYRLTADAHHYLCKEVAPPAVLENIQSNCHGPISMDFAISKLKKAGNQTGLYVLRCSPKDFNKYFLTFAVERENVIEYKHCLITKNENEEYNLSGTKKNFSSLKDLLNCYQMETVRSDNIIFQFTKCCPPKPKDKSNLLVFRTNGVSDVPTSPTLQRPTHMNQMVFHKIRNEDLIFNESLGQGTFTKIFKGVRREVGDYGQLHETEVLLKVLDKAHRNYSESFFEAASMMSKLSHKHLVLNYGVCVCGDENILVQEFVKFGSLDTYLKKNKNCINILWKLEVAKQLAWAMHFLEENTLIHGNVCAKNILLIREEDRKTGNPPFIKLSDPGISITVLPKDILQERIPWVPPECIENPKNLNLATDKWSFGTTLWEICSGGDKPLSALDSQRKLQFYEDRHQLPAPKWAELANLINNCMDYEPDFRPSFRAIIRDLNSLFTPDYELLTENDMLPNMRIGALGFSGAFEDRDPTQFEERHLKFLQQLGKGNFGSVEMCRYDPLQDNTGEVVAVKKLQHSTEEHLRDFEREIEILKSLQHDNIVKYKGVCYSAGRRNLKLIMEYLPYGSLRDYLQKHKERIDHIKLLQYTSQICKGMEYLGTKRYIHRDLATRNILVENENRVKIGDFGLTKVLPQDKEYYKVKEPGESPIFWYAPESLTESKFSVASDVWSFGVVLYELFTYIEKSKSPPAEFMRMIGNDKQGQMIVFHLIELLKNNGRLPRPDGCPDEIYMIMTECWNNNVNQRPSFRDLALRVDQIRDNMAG
Structure (SMILES),"Mean Inhib (%) [1, 27]",Mean Inhib (%) [2],Mean Inhib (%) [3],Mean Inhib (%) [4],Mean Inhib (%) [5],Mean Inhib (%) [6],Mean Inhib (%) [7],Mean Inhib (%) [8],Mean Inhib (%) [9],Mean Inhib (%) [10],Mean Inhib (%) [11],Mean Inhib (%) [12],Mean Inhib (%) [13],Mean Inhib (%) [14],Mean Inhib (%) [15],Mean Inhib (%) [16],Mean Inhib (%) [17],"Mean Inhib (%) [18, 28]","Mean Inhib (%) [18, 29]",Mean Inhib (%) [19],further results
Cc1ccc(NC(=O)c2ccnc(N3CCOCC3)c2)cc1Nc1ccnc(N2CC(C)OC(C)C2)n1 (centres unmarked) [compound 3],−7.7%,10.0%,3.4%,6.4%,1.5%,7.2%,3.6%,9.3%,0.6%,8.6%,−2.6%,20.9%,2.4%,9.0%,45.9%,4.7%,13.1%,−1.0%,3.8%,−3.6%,"Mean Inhib (%) ([1]; JAK2 JH1 JH2 FRET-Z-Lyte SP, ATP Conc(μM):Test Conc(μM) 1:25): −0.1%; Mean Inhib (%) [20]: −3.2%; Mean Inhib (%) [21]: 11.5%; Mean Inhib (%) [22]: −3.5%; Mean Inhib (%) [23]: 4.5%; Mean Inhib (%) [24]: 8.0%; Mean Inhib (%) [25]: 9.4%; Mean Inhib (%) [26]: −2.7%"
Cc1cc(Oc2ccnc(Nc3ccc(S(N)(=O)=O)cc3)c2)c(-c2ccccn2)nc1C [compound 65],4.7%,6.3%,0.2%,30.9%,21.2%,18.7%,8.1%,0.8%,2.7%,5.9%,7.7%,76.6%,7.6%,12.4%,1.6%,1.0%,5.7%,25.4%,3.2%,3.0%,"Mean Inhib (%) ([1]; JAK2 JH1 JH2 FRET-Z-Lyte SP, ATP Conc(μM):Test Conc(μM) 1:50): −3.9%; Mean Inhib (%) [20]: 1.8%; Mean Inhib (%) [21]: 2.7%; Mean Inhib (%) [22]: 7.1%; Mean Inhib (%) [23]: 11.4%; Mean Inhib (%) [24]: −0.7%; Mean Inhib (%) [25]: 3.2%; Mean Inhib (%) [26]: 1.1%"

# — US20220187282A1, “CARDIOMYOCYTE PROLIFERATION” (The Council of the Queensland Institute of Medical Research, priority 2019, published 2022)
